In US7375083B2, “Pharmaceutical compositions for prevention of overdose or abuse” (Shire LLC, priority 2003, dated 2008):
Where “and” joins values, the source holds several entries; their conditions need not be identical. Equal values may be shown once. Read-outs that look alike come from different tables or passages of the source.

Columns and labels:
[1] = Oral bioavailability in rats at escalating doses, LC/MS/MS; settings: rat
[2] = Crossover pharmacokinetics in dogs, oral vs 30-min intravenous infusion, LC-MS/MS; assay type: in vivo, male beagle dogs; settings: for AUC(0-inf): read-out: AUC(inf) of L-lysine-d-amphetamine; for Cmax: read-out: Cmax of L-lysine-d-amphetamine; for MRT: read-out: MRT of L-lysine-d-amphetamine; for Vd: read-out: Vss of L-lysine-d-amphetamine; for half-life: read-out: t1/2 of L-lysine-d-amphetamine (converted)
Description: This was a non-randomized, two-treatment crossover study. All animals were maintained on their normal diet and were fasted overnight prior to each dose administration. L-lysine-d-amphetamine dose was based on the body weight measured on the morning of each dosing day. The actual dose delivered was based on syringe weight before and after dosing. Serial blood samples were obtained from each animal by direct venipuncture of a jugular vein using vacutainer tubes containing sodium heparin as the anticoagulant. Derived plasma samples were stored frozen until shipment to the Quest Pharmaceutical Services, Inc. (Newark, Del.). Pharmacokinetic analysis of the plasma assay results was conducted by Calvert. Animals were treated as follows:
Oral: The test article was administered to each animal via a single oral gavage. On Day 1, animals received the oral dose by gavage using an esophageal tube attached to a syringe. Dosing tubes were flushed with approximately 20 mL tap water to ensure the required dosing solution was delivered.
Intravenous: On Day 8, animals received L-lysine-d-amphetamine as a single 30-minute intravenous infusion into a cephalic vein.
Blood: Serial blood samples (2 mL) were collected using venipuncture tubes containing sodium heparin. Blood samples were taken at 0, 0.25, 0.5, 1, 2, 4, 8, 12, 24, 48, and 72 hours post-oral dosing. […] Collected blood samples were chilled immediately.
Plasma: Plasma samples were obtained by centrifugation of blood samples. Duplicate plasma samples (about 0.2 mL each) were transferred into prelabeled plastic vials and stored frozen at approximately −70° C.
Microsoft Excel (Version 6, Microsoft Corp., Redmond, Wash.) was used for calculation of mean plasma concentration and graphing of the plasma concentration-time data. Pharmacokinetic analysis (non-compartmental) was performed using the WinNonlin® software program (Version 4.1, Pharsight, Inc. Mountain View, Calif.). The maximum concentration, Cmax, and the time to Cmax, Tmax, were observed values. The area under the plasma concentration-time curve (AUC) was determined using linear-log trapezoidal rules. The apparent terminal rate constant (λz) was derived using linear least-squares regression with visual inspection of the data to determine the appropriate number of points (minimum of 3 data points) for calculating λz. The AUC(0-inf) was calculated as the sum of AUC(0-t) and Cpred/λz, where Cpred was the predicted concentration at the time of the last quantifiable concentration. The plasma clearance (CL/F) was determined as the ratio of Dose/AUC (0-inf). The mean residence time (MRT) was calculated as the ratio of AUMC(0-inf)/AUC (0-inf), where AUMC(0-inf) was the area under the first moment curve from the time zero to infinity. The volume of distribution at steady state (Vss) was estimated as CL*MRT. Half-life was calculated as In2/λz. The oral bioavailability (F) was calculated as the ratio of AUC(0-inf) following oral dosing to AUC(0-inf) following intravenous dosing. Descriptive statistics (mean and standard deviation) of the pharmacokinetic parameters were calculated using Microsoft Excel.
Blood samples were collected up to 24 and 72 hour after the intravenous and oral does, respectively. Plasma samples were analyzed using a LC-MS/MS assay which provided an LLOQ of 1 ng/mL for both analytes.

[3] = male, Sprague-Dawley, in vivo, po, 3 mg/kg
[4] = male, Sprague-Dawley, in vivo, po, 6 mg/kg
[5] = male, Sprague-Dawley, in vivo, po, 12 mg/kg
[6] = male, Sprague-Dawley, in vivo, po, 60 mg/kg
[7] = male beagle dogs 1-3 and Mean, 30-min iv infusion, 2 mg/kg/h (free form), 2 mg/kg
[8] = male beagle dogs 1-3 and Mean, oral, 2 mg/kg (free form), 2 mg/kg
[9] = male, beagle, dog, plasma, iv, 1 mg/kg, male beagle dog, IV, 1 mg/kg d-amphetamine base, mean
[10] = male, beagle, dog, plasma, iv, 2 mg/kg, male beagle dogs 1-3 and Mean, 30-min iv infusion, 2 mg/kg/h (free form)
[11] = male, beagle, dog, plasma, po, 1 mg/kg, male beagle dog, oral, 1 mg/kg d-amphetamine base, mean

In the case of CC(Cc1ccccc1)NC(=O)C(N)CCCCN [L-lysine-d-amphetamine, 2,6-diaminohexanoic acid-(1-methyl-2-phenylethyl)-amide], the Tmax ([1]; male, Sprague-Dawley, in vivo, po) is reported as 15 to 180 min, the AUC(0-t) [1, 3] is reported as 0.33 µg·h/mL and the Cmax [1, 3] is reported as 0.135 µg/mL. For the same compound, the Tmax [1, 3] was 90 min, the AUC(0-t) [1, 4] was 1.16 µg·h/mL and the Cmax [1, 4] was 0.677 µg/mL. For the same compound, the Tmax [1, 4] was 15 min, the AUC(0-inf) [1, 5] was 4.51 µg·h/mL and the AUC(0-t) [1, 5] was 4.24 µg·h/mL. It also gave a Cmax [1, 5] of 0.856 µg/mL, a Tmax [1, 5] of 60 min and an AUC(0-t) [1, 6] of 8.23 µg·h/mL. It also gave a Cmax [1, 6] of 1.87 µg/mL, a Tmax [1, 6] of 180 min and a Tmax ([1]; male, Sprague-Dawley, in vivo, po, […]) of 15 min. The “Cmax of d-amphetamine compared to d-amphetamine sulfate” value ([1]; oral, 1.5 to 6 mg/kg) was “reduced by approximately half”, the Tmax ([2]; dog, plasma, male beagle dogs 1-3 and median, 30-min iv infusion, 2 mg/kg/h (free form), read-out: Tmax of L-lysine-d-amphetamine) was 29.4 min and the Tmax ([2]; dog, plasma, male beagle dogs 1-3 and median, oral, 2 mg/kg (free form), read-out: Tmax of L-lysine-d-amphetamine) was 30 min. For the same compound, the “AUC(0-t) of L-lysine-d-amphetamine” value [2, 7] was 0.8982 µg·h/mL, the “AUC(inf) of L-lysine-d-amphetamine” value [2, 7] was 0.9002 µg·h/mL and 1.0761 µg·h/mL and the “CL of L-lysine-d-amphetamine” value [2, 7] was 2.222 L/h/kg and 1.859 L/h/kg. For the same compound, the “Cmax of L-lysine-d-amphetamine” value [2, 7] was 1.4703 µg/mL, the “MRT of L-lysine-d-amphetamine” value [2, 7] was 21.6 min and 19.2 min and the “Vss of L-lysine-d-amphetamine” value [2, 7] was 0.8074 L/kg. The “t1/2 of L-lysine-d-amphetamine” value [2, 7] was 43.2 min, the “AUC(0-t) of L-lysine-d-amphetamine” value [2, 8] was 0.318 µg·h/mL and the “AUC(inf) of L-lysine-d-amphetamine” value [2, 8] was 0.312 µg·h/mL and 0.2771 µg·h/mL. For the same compound, the “CL/F of L-lysine-d-amphetamine” value [2, 8] was 6.41 L/h/kg and 7.218 L/h/kg, the “F of L-lysine-d-amphetamine” value [2, 8] was 34.3% and 34.0% and 30.8% and the “MRT of L-lysine-d-amphetamine” value [2, 8] was 40.8 min. For the same compound, the “t1/2 of L-lysine-d-amphetamine” value [2, 8] was 27 min and 14.4 min, the AUC(0-inf) [2, 9] was 0.964 µg·h/mL and the Cmax [2, 9] was 1.65 µg/mL. The MRT [2, 9] was 19.8 min, the Vd [2, 9] was 0.689 L/kg and the half-life [2, 9] was 52.8 min. It also gave a Tmax ([2]; male, beagle, dog, plasma, iv, 1 mg/kg, read-out: Tmax of L-lysine-d-amphetamine (median)) of 29.4 min, an AUC(0-t) ([2]; male, beagle, dog, plasma, iv, 2 mg/kg, male beagle dogs 1-3 and Mean, 30-min iv infusion, 2 mg/kg/h (free form), read-out: AUC(0-t) of L-lysine-d-amphetamine) of 0.914 µg·h/mL and an AUC(0-inf) [2, 10] of 0.917 µg·h/mL. The clearance ([2]; male, beagle, dog, plasma, iv, 2 mg/kg, male beagle dogs 1-3 and Mean, 30-min iv infusion, 2 mg/kg/h (free form), read-out: CL of L-lysine-d-amphetamine (converted)) was 2.18 L/h/kg, the Cmax [2, 10] was 1.65 µg/mL and the MRT [2, 10] was 18 min. It also gave a Vd [2, 10] of 0.656 L/kg, a half-life [2, 10] of 63 min and an AUC(0-inf) [2, 11] of 0.319 µg·h/mL. The CL/F ([2]; male, beagle, dog, plasma, po, 1 mg/kg, male beagle dog, oral, 1 mg/kg d-amphetamine base, mean, read-out: CL/F of L-lysine-d-amphetamine (converted)) was 6.35 L/h/kg, the Cmax [2, 11] was 0.328 µg/mL and the MRT [2, 11] was 48.6 min. It also gave a half-life [2, 11] of 23.4 min, a bioavailability ([2]; male, beagle, dog, plasma, po, 1 mg/kg, read-out: F (absolute oral bioavailability) of L-lysine-d-amphetamine) of 33% and a Tmax ([2]; male, beagle, dog, plasma, po, 1 mg/kg, read-out: Tmax of L-lysine-d-amphetamine (median)) of 30 min.
